Results from patent US20240239755A1, “SUBSTITUTED PYRIDAZINONES, SALTS OR N-OXIDES THEREOF AND THEIR USE AS HERBICIDALLY ACTIVE SUBSTANCES” (Bayer Aktiengesellschaft, priority 2021, published 2024).

Key:
Assay type in all cases: in vivo
[1] = tested on: Amaranthus retroflexus (AMARE); assay: Herbicidal pre-emergence action, 1280 g/ha (Table A11); details: visual grading after ca. 3 weeks vs untreated controls
Excerpt: (§1) Seeds of mono- and dicotyledonous weed plants were sown in plastic pots (double sowings with one species of mono- and one species of dicotyledonous weed plants per pot), in sandy loam, and covered with soil. The compounds according to the invention, formulated in the form of wettable powders (WP) or as emulsifiable concentrates (EC), were applied to the surface of the covering soil as an aqueous suspension or as an emulsion, with the addition of 0.5% of an additive, at an application rate of 600 litres of water per hectare (converted). Following treatment, the pots were placed in a greenhouse and kept under optimum growth conditions for the test plants. The visual grading of the damage to the test plants was carried out after ca. 3 weeks in comparison to untreated controls (herbicidal effect in percent (%): 100% effect=plants have died, 0% effect=as control plants). Tables A1 to A11 below, show the effects of selected compounds of the general formula (I) according to Table 1 on various harmful plants and an application rate corresponding to 1280 g/ha obtained by the experimental procedure mentioned above.

[2] = tested on: Kochia scoparia (KCHSC); assay: Herbicidal pre-emergence action, 1280 g/ha (Table A4); details: visual grading after ca. 3 weeks vs untreated controls
Excerpt: as §1

[3] = tested on: Abutilon theophrasti (ABUTH); assay: Herbicidal post-emergence action, 1280 g/ha (Table B1); details: visual assessment after ca. 3 weeks vs untreated controls
Excerpt: (§2) Seeds of mono- and dicotyledonous weed plants were sown in plastic pots (double sowings with one species of mono- and one species of dicotyledonous weed plants per pot), in sandy loam, covered with soil and grown under controlled growth conditions. 2 to 3 weeks after sowing, the test plants were sprayed in the single-leaf stage. The compounds according to the invention, formulated in the form of wettable powders (WP) or as emulsifiable concentrates (EC), were sprayed onto the green plant parts as an aqueous suspension or as an emulsion, with the addition of 0.5% of an additive, at an application rate of 600 litres of water per hectare (converted). The test plants were placed in the greenhouse for ca. 3 weeks under optimum growth conditions, and then the effect of the preparations was assessed visually in comparison with untreated controls (herbicidal effect in percent (%): 100% effect=plants have died, 0% effect=as control plants). Tables B1 to B11 below, show the effects of selected compounds of the general formula (I) according to Table 1 on various harmful plants using an application rate corresponding to 1280 g/ha obtained by the experimental procedure mentioned above.

[4] = tested on: Stellaria media (STEME); assay: Herbicidal post-emergence action, 320 g/ha, STEME; details: visual grading after ca. 3 weeks
Excerpt: as §2, with “plants).” for “plants). Tables B1 to B11 below, show the effects of selected compounds of the general formula (I) according to Table 1 on various harmful plants using an application rate corresponding to 1280 g/ha obtained by the experimental procedure mentioned above.”
(§3) Tables D1 to D8 below, show the effects of selected compounds of the general formula (I) according to Table 1 on various harmful plants using an application rate corresponding to 320 g/ha obtained by the experimental procedure mentioned above.

[5] = tested on: Stellaria media (STEME); assay: Herbicidal post-emergence action, 1280 g/ha (Table B9); details: visual assessment after ca. 3 weeks vs untreated controls
Excerpt: as §2

[6] = tested on: Amaranthus retroflexus (AMARE); assay: Herbicidal post-emergence action, 1280 g/ha, AMARE; details: visual grading vs untreated controls
Excerpt: as §2, with “plants).” for “plants). Tables B1 to B11 below, show the effects of selected compounds of the general formula (I) according to Table 1 on various harmful plants using an application rate corresponding to 1280 g/ha obtained by the experimental procedure mentioned above.”
(§4) Tables B1 to B11 below, show the effects of selected compounds of the general formula (I) according to Table 1 on various harmful plants using an application rate corresponding to 1280 g/ha obtained by the experimental procedure mentioned above.

[7] = tested on: Amaranthus retroflexus (AMARE); assay: Herbicidal post-emergence action, 320 g/ha, AMARE; details: visual grading after ca. 3 weeks
Excerpt: as §2, with “plants).” for “plants). Tables B1 to B11 below, show the effects of selected compounds of the general formula (I) according to Table 1 on various harmful plants using an application rate corresponding to 1280 g/ha obtained by the experimental procedure mentioned above.”
as §3

[8] = tested on: Kochia scoparia (KCHSC); assay: Herbicidal post-emergence action, 1280 g/ha (Table B4); details: visual assessment after ca. 3 weeks vs untreated controls
Excerpt: as §2

[9] = tested on: Stellaria media (STEME); assay: Herbicidal pre-emergence action, 320 g/ha, STEME; details: visual grading after ca. 3 weeks
Excerpt: as §1, with “plants).” for “plants). Tables A1 to A11 below, show the effects of selected compounds of the general formula (I) according to Table 1 on various harmful plants and an application rate corresponding to 1280 g/ha obtained by the experimental procedure mentioned above.”
Tables C1 to C6 below, show the effects of selected compounds of the general formula (I) according to Table 1 on various harmful plants using an application rate corresponding to 320 g/ha obtained by the experimental procedure mentioned above.

[10] = tested on: Stellaria media (STEME); assay: Herbicidal pre-emergence action, 1280 g/ha (Table A9); details: visual grading after ca. 3 weeks vs untreated controls
Excerpt: as §1

[11] = tested on: Lolium rigidum (LOLRI); assay: Herbicidal pre-emergence action, 1280 g/ha (Table A5); details: visual grading after ca. 3 weeks vs untreated controls
Excerpt: as §1

[12] = tested on: Matricaria inodora (MATIN); assay: Herbicidal pre-emergence action, 1280 g/ha (Table A6); details: visual grading after ca. 3 weeks vs untreated controls
Excerpt: as §1

[13] = tested on: Veronica persica (VERPE); assay: Herbicidal post-emergence action, 1280 g/ha, VERPE; details: visual grading vs untreated controls
Excerpt: as §2, with “plants).” for “plants). Tables B1 to B11 below, show the effects of selected compounds of the general formula (I) according to Table 1 on various harmful plants using an application rate corresponding to 1280 g/ha obtained by the experimental procedure mentioned above.”
as §4

[14] = tested on: Matricaria inodora (MATIN); assay: Herbicidal post-emergence action, 1280 g/ha (Table B6); details: visual assessment after ca. 3 weeks vs untreated controls
Excerpt: as §2

[15] = tested on: Abutilon theophrasti (ABUTH); assay: Herbicidal post-emergence action, 320 g/ha, ABUTH; details: visual grading after ca. 3 weeks
Excerpt: as §2, with “plants).” for “plants). Tables B1 to B11 below, show the effects of selected compounds of the general formula (I) according to Table 1 on various harmful plants using an application rate corresponding to 1280 g/ha obtained by the experimental procedure mentioned above.”
as §3

| Structure (SMILES) | herbicidal effect AMARE [1] [%] | herbicidal effect KCHSC [2] [%] | herbicidal effect ABUTH [3] [%] | herbicidal effect STEME [4] [%] | herbicidal effect STEME [5] [%] | herbicidal effect AMARE [6] [%] | herbicidal effect AMARE [7] [%] | herbicidal effect KCHSC [8] [%] | herbicidal effect STEME [9] [%] | herbicidal effect STEME [10] [%] | herbicidal effect LOLRI [11] [%] | herbicidal effect MATIN [12] [%] | herbicidal effect VERPE [13] [%] | herbicidal effect MATIN [14] [%] | herbicidal effect ABUTH [15] [%] |
| --- | --- | --- | --- | --- | --- | --- | --- | --- | --- | --- | --- | --- | --- | --- | --- |
| Cc1nn(C)c(=O)c(Oc2ccccc2)c1O [Example I-001] | 90 | – | – | – | – | – | – | – | – | – | – | – | – | – | – |
| Cc1nn(C)c(=O)c(Oc2cccc(Cl)c2)c1O [Example I-004] | 90 | 90 | 90 | 90 | 100 | – | – | – | – | – | – | – | – | – | – |
| Cc1nn(C)c(=O)c(Oc2cccc(C(F)(F)F)c2)c1O [Example I-005] | 100 | – | – | – | 90 | 100 | 90 | – | – | – | – | – | – | – | – |
| Cc1nn(C)c(=O)c(Oc2ccccc2Br)c1O [Example I-011] | 100 | 100 | – | – | – | 90 | – | 90 | 90 | 100 | 90 | 90 | – | – | – |
| Cc1cccc(Cl)c1Oc1c(O)c(C)nn(C)c1=O [Example I-023] | 90 | – | – | – | 90 | 90 | – | – | – | 90 | – | 90 | – | – | – |
| COc1ccccc1Oc1c(O)c(C)nn(C)c1=O [Example I-024] | – | – | – | – | 90 | 90 | – | – | – | 90 | 90 | – | 90 | – | – |
| Cc1nn(C)c(=O)c(Oc2cccc(F)c2Cl)c1O [Example I-025] | – | – | – | – | – | – | – | – | 100 | 100 | – | 100 | – | – | – |
| Cc1nn(C)c(=O)c(Oc2ccc(Cl)cc2C2CC2)c1O [Example I-035] | 90 | 100 | 90 | – | 90 | 90 | 90 | 90 | – | – | – | – | 90 | 90 | 90 |
| Cc1ccc(Oc2c(O)c(C)nn(C)c2=O)c(C2CC2)c1 [Example I-037] | – | – | – | – | 90 | – | – | – | – | – | – | – | – | – | – |
| CCOC(=O)Oc1c(C)nn(C)c(=O)c1Oc1ccc(C)cc1C1CC1 [Example I-038] | – | – | 90 | – | – | 90 | – | – | – | – | – | – | – | – | – |
| Cc1ccc(C2CC2)c(Oc2c(O)c(C)nn(C)c2=O)c1 [Example I-039] | 90 | – | – | – | 90 | 90 | – | – | – | – | – | – | – | – | – |
| CCOC(=O)Oc1c(C)nn(C)c(=O)c1Oc1cc(C)ccc1C1CC1 [Example I-040] | – | – | – | – | – | 90 | – | – | – | – | – | – | – | – | – |
| CCOC(=O)Oc1c(C)nn(C)c(=O)c1Oc1cccc(C)c1C1CC1 [Example I-066] | 100 | – | 90 | – | 100 | – | – | – | – | – | – | 90 | – | 90 | – |
| Cc1nn(C)c(=O)c(Oc2cccc(F)c2C2CC2)c1O [Example I-073] | – | – | 100 | – | 100 | 90 | – | 90 | 90 | 90 | 90 | 90 | – | 90 | 100 |
| Cc1nn(C)c(=O)c(Oc2ccccc2OC(F)F)c1O [Example I-082] | – | – | 100 | 90 | 100 | 90 | – | – | – | 90 | 90 | 90 | 90 | 90 | 90 |
| Cc1nn(C)c(=O)c(Oc2c(F)cccc2C2CC2)c1O [Example I-084] | – | – | 90 | – | 90 | 90 | 90 | 90 | – | – | 90 | – | 90 | – | – |
| Cc1nn(C)c(=O)c(Oc2cc(F)ccc2Br)c1OC(=O)C(C)C [Example I-089] | – | – | 90 | – | – | 100 | – | – | – | 90 | 90 | 100 | – | 90 | – |
| Cc1nn(C)c(=O)c(Oc2cc(F)cc(F)c2Br)c1O [Example I-090] | 90 | – | – | – | 90 | 90 | – | – | 90 | 100 | 90 | 90 | – | 90 | – |
| Cc1nn(C)c(=O)c(Oc2cc(F)cc(F)c2Br)c1OC(=O)C(C)C [Example I-099] | – | – | 100 | 90 | 90 | 90 | – | 90 | 90 | 90 | – | 90 | 90 | 90 | – |
| Cc1nn(C)c(=O)c(Oc2cc(Cl)cc(Cl)c2Cl)c1OC(=O)C(C)C [Example I-100] | – | – | 90 | 90 | 100 | 90 | – | – | 100 | 100 | 90 | – | – | – | – |
